Measurements: the NIST ThermoML archive (doi:10.1021/acs.jced.8b00678)
Where “and” joins values, the source holds several entries; their conditions need not be identical. Equal entries are not always repeated. Numbers after ± are expanded uncertainties.

assay: refractive index (Na D-line) (dimensionless); wn = mass fraction of the nth substance listed; conditions: 298.15 K; 84.5 kPa; Liquid; Standard Abbe refractometry; w1 = 0.02

In the case of `CCCCn1cc[n+](C)c1.F[B-](F)(F)F` [1-butyl-3-methylimidazolium tetrafluoroborate] + O, the refractive index is reported as 1.3339 ± 0.00055 and 1.33393 ± 0.00055 and 1.33391 ± 0.00055.

In order of rising refractive index:
1. OC[C@H]1O[C@@](CO)(O[C@H]2O[C@H](CO)[C@@H](O)[C@H](O)[C@H]2O)[C@@H](O)[C@@H]1O [D-sucrose] + O  1.33518 ± 0.00055
2. O=C[C@H](O)[C@@H](O)[C@@H](O)CO [L-arabinose] + O  1.33523 ± 0.00055
3. O=C(CO)[C@@H](O)[C@H](O)[C@H](O)CO [D-fructose] + O  1.33525 ± 0.00055
4. O=C[C@H](O)[C@@H](O)[C@H](O)[C@H](O)CO [D-glucose] + O  1.33529 ± 0.00055
